Patent US11304919B2, “Utilization of cilastatin in inhibiting renal disorder” (NIIGATA UNIVERSITY, priority 2018, dated 2022)

Key:
megalin [1] = assay: Contrast nephropathy model in kidney-specific megalin partial knockout mice (apoE-Cre), megalin/KIM-1 immunostaining (Reference Example 3); format: in vivo, mouse; settings: 200 μL iomeprol, 48 h after administration, FIGS. 10A-10C
Experimental: Similar murine models of contrast nephropathy to those of Reference Example 1 were constructed using kidney-specific megalin partial knockout mice (apoE-Cre), and were used to verify the involvement of megalin in the onset of contrast-induced renal injuries.
Left kidneys were extracted from the apoE-Cre knockout mice, and 14 days later, right kidney pedicles were ligated for 30 minutes. Thereafter, reperfusion was carried out. After 24 hours from the start of reperfusion, 200 μL of iomeprol or normal saline was administered from the tail vein.
The stained slices were mounted with Slow Fade Gold Antifade Reagent (Life Technologies) and observed using a fluorescence microscopy (BZ-9000, Keyence). In particular, it was verified whether megalin and KIM-1 were expressed in the S1 and S2 segments of renal proximal tubules.

[2] = tested on: protein of interest (carrier; megalin ligand); assay: Binding of contrast solid-phased magnetic beads to carrier protein, WB (Reference Example 5); settings: 0/3/10 mM iomeprol solid-phased beads; protein 25 ng/μL; 4° C., 4 h; FIG. 21
Text: A substance that can serve as a carrier for an iodinated contrast medium was selected by reference to the information reported on megalin ligands. To be specific, one protein known to be filtered at the glomeruli and resorbed by renal proximal tubular epithelial cells via megalin was selected among megalin ligands.
The binding specificity between this protein and an iodinated contrast medium was verified using contrast solid-phased magnetic beads by following the procedures described below.
Five milligrams each of the 0 mM/3 mM/10 mM contrast solid-phased beads prepared in Reference Example 4 were dispersed and washed according to the procedure described in Reference Example 4. Next, the protein of interest (produced by LifeSpan BioSciences, Inc.) was dissolved in 100 mM KCL to prepare a 25 ng/μL solution. The above-washed beads were each dispersed in 200 μL of the prepared solution and reacted at 4° C. for 4 hours. Then, heat-eluted samples were prepared by following the procedure described in Reference Example 4.
The procedures for sample electrophoresis and WB analysis were performed in accordance with Reference Example 4. An antibody against the protein of interest (a polyclonal antibody produced by Bioss Inc.) was added at a concentration of 2 μg/mL and reacted at room temperature for 2 hours.

megalin [3] = assay: EPMA mapping of iodine in kidney tissue of kidney-specific megalin complete knockout (NDRG1-Cre) and control mice (Reference Example 2); settings: kidney-specific megalin complete knockout mice; 200 μL tail vein; kidneys extracted 3 h later; FIGS. 4-9
Text: (§1) EPMA is an electron microprobe (EMP) instrument that analyzes the constituent elements of a substance of interest by irradiating electron beams onto the substance and measuring the wavelengths and intensities of characteristic X-rays unique to the different elements, which are generated by the electron beams. […] The behaviors of contrast media per se can be verified by analyzing iodine content distribution.
(§2) In order to use right kidneys for analysis, 3 mm-thick sections containing a kidney pedicle portion were prepared, embedded in OCT compound, freeze-fixed with liquid nitrogen, and stored at −80° C.
(§3) Next, the stored sections were sliced at a thickness of 4 μm using a cryostat (CM1850, Leica Biosystems), and the obtained slices were attached onto carbon-coated grids and freeze-dried overnight.
(§4) 378 μm^2 cortical areas in the prepared tissue slices were analyzed by EPMA (EPMA 1610, Shimadzu Corporation, Kyoto, Japan) to map iodine present in the structures of the contrast media.

megalin [4] = biological target: megalin (Mus musculus, UniProt A2ARV4); assay: as above; settings: control (uninduced) mice; 200 μL tail vein; kidneys extracted 3 h later; FIGS. 4-9
Chain of megalin (Mus musculus, UniProt A2ARV4) (A2ARV4 26-4660): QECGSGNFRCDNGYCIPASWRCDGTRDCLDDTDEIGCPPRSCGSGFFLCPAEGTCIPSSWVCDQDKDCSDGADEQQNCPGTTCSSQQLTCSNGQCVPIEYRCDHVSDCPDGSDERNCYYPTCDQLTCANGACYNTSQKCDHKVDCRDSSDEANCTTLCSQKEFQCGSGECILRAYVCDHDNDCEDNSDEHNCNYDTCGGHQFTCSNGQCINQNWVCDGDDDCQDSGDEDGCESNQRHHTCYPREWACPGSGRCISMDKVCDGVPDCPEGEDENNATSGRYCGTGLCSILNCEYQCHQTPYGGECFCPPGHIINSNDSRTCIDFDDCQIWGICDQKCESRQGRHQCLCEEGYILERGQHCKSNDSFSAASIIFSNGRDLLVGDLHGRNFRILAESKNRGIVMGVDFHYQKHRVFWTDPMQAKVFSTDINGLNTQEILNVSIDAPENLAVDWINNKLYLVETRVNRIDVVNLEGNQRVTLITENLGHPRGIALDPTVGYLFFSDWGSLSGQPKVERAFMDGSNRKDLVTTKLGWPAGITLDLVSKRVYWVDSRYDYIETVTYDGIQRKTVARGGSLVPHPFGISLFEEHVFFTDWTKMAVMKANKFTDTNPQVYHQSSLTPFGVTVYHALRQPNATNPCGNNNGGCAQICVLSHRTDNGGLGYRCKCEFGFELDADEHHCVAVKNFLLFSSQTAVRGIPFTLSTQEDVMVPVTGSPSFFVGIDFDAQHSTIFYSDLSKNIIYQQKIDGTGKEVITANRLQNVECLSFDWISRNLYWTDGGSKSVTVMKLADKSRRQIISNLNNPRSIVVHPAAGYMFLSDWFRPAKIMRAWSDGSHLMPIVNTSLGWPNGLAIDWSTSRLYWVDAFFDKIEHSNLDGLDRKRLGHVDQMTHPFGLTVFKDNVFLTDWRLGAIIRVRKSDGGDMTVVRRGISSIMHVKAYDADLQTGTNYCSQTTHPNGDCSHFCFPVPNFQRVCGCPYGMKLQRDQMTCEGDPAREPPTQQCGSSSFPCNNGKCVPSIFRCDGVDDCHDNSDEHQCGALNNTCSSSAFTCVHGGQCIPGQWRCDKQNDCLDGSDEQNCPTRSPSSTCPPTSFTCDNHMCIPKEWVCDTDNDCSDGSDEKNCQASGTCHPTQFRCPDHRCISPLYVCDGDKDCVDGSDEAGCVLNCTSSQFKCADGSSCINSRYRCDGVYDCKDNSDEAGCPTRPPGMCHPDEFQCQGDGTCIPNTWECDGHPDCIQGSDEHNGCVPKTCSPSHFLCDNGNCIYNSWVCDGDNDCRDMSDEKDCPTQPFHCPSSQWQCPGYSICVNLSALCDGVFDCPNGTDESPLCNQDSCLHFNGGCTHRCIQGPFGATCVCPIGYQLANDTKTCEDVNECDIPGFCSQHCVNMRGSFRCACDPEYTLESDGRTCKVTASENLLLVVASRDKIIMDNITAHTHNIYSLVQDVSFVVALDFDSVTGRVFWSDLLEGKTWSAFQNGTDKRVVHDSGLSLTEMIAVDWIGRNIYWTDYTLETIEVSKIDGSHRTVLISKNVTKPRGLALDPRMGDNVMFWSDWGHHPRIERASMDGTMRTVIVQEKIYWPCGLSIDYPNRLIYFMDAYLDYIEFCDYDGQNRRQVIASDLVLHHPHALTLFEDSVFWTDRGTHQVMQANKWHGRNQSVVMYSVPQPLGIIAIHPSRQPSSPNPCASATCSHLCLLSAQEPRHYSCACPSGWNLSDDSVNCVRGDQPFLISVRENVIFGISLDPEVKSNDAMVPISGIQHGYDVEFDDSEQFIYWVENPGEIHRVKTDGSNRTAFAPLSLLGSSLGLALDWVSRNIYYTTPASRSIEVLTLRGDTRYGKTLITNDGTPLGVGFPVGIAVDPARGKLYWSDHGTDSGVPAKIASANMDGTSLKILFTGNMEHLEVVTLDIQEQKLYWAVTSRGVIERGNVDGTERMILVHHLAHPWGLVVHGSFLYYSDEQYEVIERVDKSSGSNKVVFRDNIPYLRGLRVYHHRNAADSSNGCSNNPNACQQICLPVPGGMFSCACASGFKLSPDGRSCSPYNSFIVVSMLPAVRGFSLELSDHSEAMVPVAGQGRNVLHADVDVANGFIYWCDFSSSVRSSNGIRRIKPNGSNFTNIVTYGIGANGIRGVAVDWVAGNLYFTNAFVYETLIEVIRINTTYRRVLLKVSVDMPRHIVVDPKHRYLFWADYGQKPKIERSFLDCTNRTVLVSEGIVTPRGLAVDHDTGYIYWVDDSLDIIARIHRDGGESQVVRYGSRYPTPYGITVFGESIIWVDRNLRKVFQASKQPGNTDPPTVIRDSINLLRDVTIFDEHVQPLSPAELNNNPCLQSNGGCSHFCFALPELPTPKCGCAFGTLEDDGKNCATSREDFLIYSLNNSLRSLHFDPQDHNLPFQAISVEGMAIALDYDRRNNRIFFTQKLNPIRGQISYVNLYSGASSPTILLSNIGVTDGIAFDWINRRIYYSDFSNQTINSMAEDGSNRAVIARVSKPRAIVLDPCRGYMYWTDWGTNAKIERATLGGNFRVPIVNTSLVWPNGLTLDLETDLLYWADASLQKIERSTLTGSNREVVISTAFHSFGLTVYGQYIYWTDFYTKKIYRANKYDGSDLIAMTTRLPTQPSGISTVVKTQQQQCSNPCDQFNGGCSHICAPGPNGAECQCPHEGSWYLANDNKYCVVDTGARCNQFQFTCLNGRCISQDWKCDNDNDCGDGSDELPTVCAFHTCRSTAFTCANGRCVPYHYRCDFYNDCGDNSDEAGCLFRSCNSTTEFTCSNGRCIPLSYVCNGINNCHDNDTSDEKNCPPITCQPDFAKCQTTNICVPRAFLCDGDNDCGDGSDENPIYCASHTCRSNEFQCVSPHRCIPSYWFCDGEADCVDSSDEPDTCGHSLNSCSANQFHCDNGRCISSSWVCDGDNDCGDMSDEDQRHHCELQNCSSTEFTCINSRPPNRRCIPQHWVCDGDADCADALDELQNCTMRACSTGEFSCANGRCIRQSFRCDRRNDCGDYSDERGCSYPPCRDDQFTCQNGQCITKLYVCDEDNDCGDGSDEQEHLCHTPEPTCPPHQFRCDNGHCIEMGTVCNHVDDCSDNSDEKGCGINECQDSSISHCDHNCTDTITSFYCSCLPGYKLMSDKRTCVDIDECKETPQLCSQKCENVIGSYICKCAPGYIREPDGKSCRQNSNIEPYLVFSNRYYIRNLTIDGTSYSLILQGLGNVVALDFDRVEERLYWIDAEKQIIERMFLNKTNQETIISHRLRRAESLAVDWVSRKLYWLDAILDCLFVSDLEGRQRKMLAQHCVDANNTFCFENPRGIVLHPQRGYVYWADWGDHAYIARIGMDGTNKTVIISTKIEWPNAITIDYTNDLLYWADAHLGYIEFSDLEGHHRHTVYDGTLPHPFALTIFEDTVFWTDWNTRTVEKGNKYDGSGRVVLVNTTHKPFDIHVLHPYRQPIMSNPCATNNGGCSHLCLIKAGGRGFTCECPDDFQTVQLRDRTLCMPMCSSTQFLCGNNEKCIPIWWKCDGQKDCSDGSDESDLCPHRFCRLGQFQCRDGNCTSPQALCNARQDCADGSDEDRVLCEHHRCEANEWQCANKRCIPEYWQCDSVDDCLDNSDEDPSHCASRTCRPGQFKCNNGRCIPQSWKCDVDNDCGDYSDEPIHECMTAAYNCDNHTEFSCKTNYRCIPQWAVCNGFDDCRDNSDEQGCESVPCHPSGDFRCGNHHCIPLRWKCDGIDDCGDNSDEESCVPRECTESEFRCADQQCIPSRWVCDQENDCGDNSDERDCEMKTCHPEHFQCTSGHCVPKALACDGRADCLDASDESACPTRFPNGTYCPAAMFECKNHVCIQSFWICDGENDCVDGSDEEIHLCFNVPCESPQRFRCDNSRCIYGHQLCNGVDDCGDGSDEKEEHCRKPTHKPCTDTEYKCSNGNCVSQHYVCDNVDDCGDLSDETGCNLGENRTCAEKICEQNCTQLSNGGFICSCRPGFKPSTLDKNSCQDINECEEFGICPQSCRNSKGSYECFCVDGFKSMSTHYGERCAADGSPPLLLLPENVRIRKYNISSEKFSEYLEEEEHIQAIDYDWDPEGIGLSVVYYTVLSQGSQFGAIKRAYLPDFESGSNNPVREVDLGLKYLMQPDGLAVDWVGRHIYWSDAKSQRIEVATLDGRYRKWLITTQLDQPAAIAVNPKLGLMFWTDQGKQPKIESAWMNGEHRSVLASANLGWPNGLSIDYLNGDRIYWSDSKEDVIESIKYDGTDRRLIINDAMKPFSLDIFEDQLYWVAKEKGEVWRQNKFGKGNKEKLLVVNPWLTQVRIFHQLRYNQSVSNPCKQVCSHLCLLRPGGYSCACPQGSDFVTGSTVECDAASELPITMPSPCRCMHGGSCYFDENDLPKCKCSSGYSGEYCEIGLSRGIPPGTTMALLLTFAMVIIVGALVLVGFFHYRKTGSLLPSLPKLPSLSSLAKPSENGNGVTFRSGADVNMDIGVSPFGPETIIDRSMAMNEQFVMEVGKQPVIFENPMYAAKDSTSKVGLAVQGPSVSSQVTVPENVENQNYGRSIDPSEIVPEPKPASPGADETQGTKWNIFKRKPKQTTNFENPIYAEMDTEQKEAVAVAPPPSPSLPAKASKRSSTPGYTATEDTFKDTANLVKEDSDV
Text: as §1, §2, §3, §4

binding of protein of interest to contrast solid phased on beads (WB band, heat-eluted samples) [2]: bound in a specific manner
iodine contents detected in kidney slices by EPMA, NDRG1-Cre mice versus control mice (megalin [3]): lower
SMILES: CN(C(=O)CO)c1c(I)c(C(=O)NCC(O)CO)c(I)c(C(=O)NCC(O)CO)c1I (stereo not shown) [iomeprol]
KIM-1 expression relative to megalin expression in renal proximal tubular epithelial cells (megalin [1]): expressed in a specific manner in the renal proximal tubular epithelial cells with expression of megalin
iodine detected in kidney slices by EPMA, control mice (megalin [4]): High concentrations of iodine were detected
